Where “and” joins values, the source holds several entries; their conditions need not be identical. Identical values can stand only once. Inconclusive results and toxic doses are left out.
Test system: BDF1 mice, P388 leukemia ip, median survival T/C
Experiment: NCI In Vivo Anticancer Drug Screen. Data for tumor model P388 Leukemia (intraperitoneal) in B6D2F1 (BDF1) mice
Details: endpoint: median survival time, higher = longer survival
Summary of the method: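 Reported as T/C, where T is the survival measurement in dosed animals and C the same measurement in vehicle controls.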

[1] = dose: 100.0 mg/kg/injection, schedule: Q04DX003 (ip), vehicle: saline with Tween-80
[2] = dose: 200.0 mg/kg/injection, schedule: Q04DX003 (ip), vehicle: saline with Tween-80
[3] = dose: 400.0 mg/kg/injection, schedule: Q04DX003 (ip), vehicle: saline with Tween-80
[4] = dose: 50.0 mg/kg/injection, schedule: Q01DX009 (ip), vehicle: saline
[5] = dose: 50.0 mg/kg/injection, schedule: Q04DX003 (ip), vehicle: saline
[6] = dose: 100.0 mg/kg/injection, schedule: Q01DX009 (ip), vehicle: saline
[7] = dose: 100.0 mg/kg/injection, schedule: Q04DX003 (ip), vehicle: saline
[8] = dose: 200.0 mg/kg/injection, schedule: Q04DX003 (ip), vehicle: saline
[9] = dose: 6.25 mg/kg/injection, schedule: Q01DX009 (ip), vehicle: saline with Tween-80
[10] = dose: 25.0 mg/kg/injection, schedule: Q01DX009 (ip), vehicle: saline with Tween-80
[11] = dose: 50.0 mg/kg/injection, schedule: Q01DX009 (ip), vehicle: saline with Tween-80
[12] = dose: 400.0 mg/kg/injection, schedule: Q01DX001 (ip), vehicle: Klucel (hydroxypropylcellulose) (HPC)
[13] = dose: 12.5 mg/kg/injection, schedule: Q01DX009 (ip), vehicle: saline
[14] = dose: 12.5 mg/kg/injection, schedule: Q04DX003 (ip), vehicle: saline with Tween-80
[15] = dose: 25.0 mg/kg/injection, schedule: Q01DX009 (ip), vehicle: saline
[16] = dose: 100.0 mg/kg/injection, schedule: Q01DX009 (ip), vehicle: saline with Tween-80
[17] = dose: 6.25 mg/kg/injection, schedule: Q01DX009 (ip), vehicle: saline
[18] = dose: 200.0 mg/kg/injection, schedule: Q01DX009 (ip), vehicle: saline with Tween-80
[19] = dose: 25.0 mg/kg/injection, schedule: Q04DX003 (ip), vehicle: saline

For `CC(=O)[C@H]1CC[C@H]2[C@@H]3CCC4=CC(=O)CC[C@]4(C)[C@H]3CC[C@]12C`, the T/C (dose: 100.0 mg/kg/injection, schedule: Q01DX009 (sc), vehicle: steriod suspending solution) was 104 % of control, the T/C (dose: 100.0 mg/kg/injection, schedule: Q04DX003 (sc), vehicle: steriod suspending solution) was 100 % of control and the T/C (dose: 200.0 mg/kg/injection, schedule: Q01DX009 (sc), vehicle: steriod suspending solution) was 87 % of control. For the same compound, the T/C (dose: 200.0 mg/kg/injection, schedule: Q04DX003 (sc), vehicle: steriod suspending solution) was 105 % of control, the T/C (dose: 400.0 mg/kg/injection, schedule: Q01DX009 (sc), vehicle: steriod suspending solution) was 87 % of control and the T/C (dose: 400.0 mg/kg/injection, schedule: Q04DX003 (sc), vehicle: steriod suspending solution) was 110 % of control.
In the case of `O=[N+]([O-])c1ccc2nnn(OC3CCCC3)c2c1`, the T/C [1] is reported as 98 % of control, the T/C [2] is reported as 101 % of control and the T/C [3] is reported as 88 % of control.
With `CCCCN=CC(C)(C)NCCCC` the T/C [4] was 91 % of control and 99 % of control, the T/C [5] was 103 % of control and the T/C [6] was 98 % of control and 107 % of control. The T/C [7] was 103 % of control and the T/C [8] was 100 % of control.
With `COc1ccc2c(c1OC(C)=O)-c1cc(OC(C)=O)cc3c1C(C2)N(C(=O)CBr)CC3` (configuration not stated) the T/C [9] was 105 % of control, the T/C (dose: 12.5 mg/kg/injection, schedule: Q01DX009 (ip), vehicle: saline with Tween-80) was 106 % of control and the T/C [10] was 116 % of control. For the same compound, the T/C [11] was 88 % of control and 114 % of control.
In the case of `COc1ccc(N=NNc2ccc(OC)cc2)cc1`, the T/C [10] is reported as 154 % of control and the T/C (dose: 37.5 mg/kg/injection, schedule: Q01DX009 (ip), vehicle: saline with Tween-80) is reported as 155 % of control and 166 % of control.
`CCOC1(CC)CN(Cc2ccccc2)CCO1` (configuration not stated) was tested, and the T/C (dose: 100.0 mg/kg/injection, schedule: Q01DX001 (ip), vehicle: Klucel (hydroxypropylcellulose) (HPC)) was 121 % of control, the T/C (dose: 200.0 mg/kg/injection, schedule: Q01DX001 (ip), vehicle: Klucel (hydroxypropylcellulose) (HPC)) was 121 % of control and the T/C [12] was 115 % of control.
`C[N+]1(C)CCCCC1` was tested, and the T/C [13] was 95 % of control and 100 % of control, the T/C [14] was 101 % of control and the T/C [15] was 98 % of control and 100 % of control. The T/C [5] was 100 % of control.
For `Cn1c(Cc2ccccc2)c([N+](=O)[O-])c(=O)n(C)c1=O`, the T/C [11] was 110 % of control and the T/C [16] was 113 % of control.
For `C1=CC2CCC(C1)C21OCCO1` (configuration not stated), the T/C [6] was 90 % of control, the T/C [7] was 95 % of control and the T/C (dose: 200.0 mg/kg/injection, schedule: Q01DX009 (ip), vehicle: saline) was 109 % of control. The T/C [8] was 104 % of control, the T/C (dose: 400.0 mg/kg/injection, schedule: Q01DX009 (ip), vehicle: saline) was 109 % of control and the T/C (dose: 400.0 mg/kg/injection, schedule: Q04DX003 (ip), vehicle: saline) was 108 % of control.
`COC1C(=[N+]=[N-])C(=O)NC(=O)N1C` (configuration not stated) was tested, and the T/C (dose: 12.5 mg/kg/injection, schedule: Q04DX003 (ip), vehicle: water) was 120 % of control.
`C=CC(COC(=O)C(C)(C)OC(C)=O)c1ccc(OC(=O)C(C)C)c(OC)c1` (configuration not stated) was tested, and the T/C (dose: 1.56 mg/kg/injection, schedule: Q01DX009 (ip), vehicle: saline) was 119 % of control, the T/C (dose: 3.13 mg/kg/injection, schedule: Q01DX009 (ip), vehicle: saline) was 100 % of control and the T/C [17] was 103 % of control. For the same compound, the T/C [13] was 100 % of control.
`c1ccc(P(OC2CCCCC2)OC2CCCCC2)cc1` was tested, and the T/C [11] was 109 % of control, the T/C [16] was 109 % of control and the T/C [18] was 110 % of control.
For `C[C@]12CC[C@@H]3c4ccc(Oc5nc(N6CC6)nc(N6CC6)n5)cc4CC[C@H]3[C@@H]1CCC2=O`, the T/C (dose: 3.12 mg/kg/injection, schedule: Q01DX009 (ip), vehicle: saline with Tween-80) was 91 % of control and the T/C [9] was 100 % of control.
With `N#C[SH2+].N#C[SH2+].N#C[SH2+].N#C[SH2+].[Cu+2].c1ccc(C[P+](c2ccccc2)(c2ccccc2)c2ccccc2)cc1` the T/C (dose: 100.0 mg/kg/injection, schedule: Q01DX001 (ip), vehicle: saline with Tween-80) was 100 % of control.
For `COc1ccccc1CC(C)N` (configuration not stated), the T/C (dose: 20.0 mg/kg/injection, schedule: Q01DX009 (ip), vehicle: saline with Tween-80) was 87 % of control and the T/C (dose: 80.0 mg/kg/injection, schedule: Q01DX009 (ip), vehicle: saline with Tween-80) was 91 % of control.
In the case of `COc1cc(/C=N\NC(=O)CC#N)cc(OC)c1OC`, the T/C [11] is reported as 90 % of control, the T/C (dose: 50.0 mg/kg/injection, schedule: Q04DX003 (ip), vehicle: saline with Tween-80) is reported as 95 % of control and the T/C [16] is reported as 104 % of control. The T/C [1] was 95 % of control, the T/C [18] was 100 % of control and the T/C [2] was 95 % of control.
With `OCC1OC(n2ccc3c2ncn2ccnc32)C(O)C1O` (configuration not stated) the T/C [19] was 110 % of control, the T/C [5] was 102 % of control and the T/C [7] was 96 % of control. The T/C [8] was 102 % of control.
In the case of `CN(C)CCCN1c2ccccc2Sc2ccc(C(F)(F)F)cc21`, the T/C [17] is reported as 100 % of control, the T/C (dose: 6.25 mg/kg/injection, schedule: Q04DX003 (ip), vehicle: saline with Tween-80) is reported as 108 % of control and the T/C (dose: 8.9 mg/kg/injection, schedule: Q01DX009 (ip), vehicle: saline) is reported as 118 % of control. The T/C (dose: 9.37 mg/kg/injection, schedule: Q01DX009 (ip), vehicle: saline) was 110 % of control, the T/C [14] was 113 % of control and the T/C (dose: 12.5 mg/kg/injection, schedule: Q04DX003 (ip), vehicle: saline) was 108 % of control. The T/C (dose: 13.4 mg/kg/injection, schedule: Q01DX009 (ip), vehicle: saline) was 109 % of control, the T/C (dose: 16.5 mg/kg/injection, schedule: Q01DX009 (ip), vehicle: saline) was 122 % of control and the T/C (dose: 20.0 mg/kg/injection, schedule: Q01DX009 (ip), vehicle: saline) was 118 % of control. For the same compound, the T/C [15] was 100 % of control, the T/C (dose: 25.0 mg/kg/injection, schedule: Q04DX003 (ip), vehicle: saline with Tween-80) was 113 % of control and the T/C [19] was 109 % of control. The T/C (dose: 37.5 mg/kg/injection, schedule: Q01DX009 (ip), vehicle: saline) was 100 % of control, the T/C (dose: 37.5 mg/kg/injection, schedule: Q04DX003 (ip), vehicle: saline) was 161 % of control and the T/C [4] was 95 % of control.
In the case of `Cc1ccc(S(=O)(=O)N(CC(=O)O)c2cccc(Cl)c2)cc1`, the T/C (dose: 100.0 mg/kg/injection, schedule: Q01DX009 (ip), vehicle: Klucel (hydroxypropylcellulose) (HPC)) is reported as 100 % of control, the T/C (dose: 100.0 mg/kg/injection, schedule: Q04DX003 (ip), vehicle: Klucel (hydroxypropylcellulose) (HPC)) is reported as 100 % of control and the T/C (dose: 200.0 mg/kg/injection, schedule: Q01DX009 (ip), vehicle: Klucel (hydroxypropylcellulose) (HPC)) is reported as 100 % of control. For the same compound, the T/C (dose: 200.0 mg/kg/injection, schedule: Q04DX003 (ip), vehicle: Klucel (hydroxypropylcellulose) (HPC)) was 104 % of control, the T/C (dose: 400.0 mg/kg/injection, schedule: Q01DX009 (ip), vehicle: Klucel (hydroxypropylcellulose) (HPC)) was 104 % of control and the T/C (dose: 400.0 mg/kg/injection, schedule: Q04DX003 (ip), vehicle: Klucel (hydroxypropylcellulose) (HPC)) was 100 % of control.
`N#Cc1ccc(Oc2ccc(C#N)cc2)cc1` was tested, and the T/C [1] was 92 % of control, the T/C [2] was 88 % of control and the T/C [3] was 88 % of control.
With `O=c1[nH]c2ccc(Br)cc2c(=O)o1` the T/C (dose: 25.0 mg/kg/injection, schedule: Q01DX001 (ip), vehicle: Klucel (hydroxypropylcellulose) (HPC)) was 104 % of control, the T/C (dose: 35.0 mg/kg/injection, schedule: Q01DX001 (ip), vehicle: Klucel (hydroxypropylcellulose) (HPC)) was 109 % of control and the T/C (dose: 50.0 mg/kg/injection, schedule: Q01DX001 (ip), vehicle: Klucel (hydroxypropylcellulose) (HPC)) was 104 % of control. The T/C (dose: 75.0 mg/kg/injection, schedule: Q01DX001 (ip), vehicle: Klucel (hydroxypropylcellulose) (HPC)) was 95 % of control, the T/C [16] was 150 % of control and the T/C (dose: 250.0 mg/kg/injection, schedule: Q01DX001 (ip), vehicle: Klucel (hydroxypropylcellulose) (HPC)) was 92 % of control. The T/C [12] was 88 % of control.
With `COc1ccc2cc(OC)ccc2c1` the T/C (dose: 100.0 mg/kg/injection, schedule: Q01DX001 (ip), vehicle: saline sonified) was 100 % of control, the T/C (dose: 200.0 mg/kg/injection, schedule: Q01DX001 (ip), vehicle: saline sonified) was 100 % of control and the T/C (dose: 400.0 mg/kg/injection, schedule: Q01DX001 (ip), vehicle: saline sonified) was 100 % of control.

Source: PubChem BioAssay AID328 (DTP/NCI, 2004)
